Read-outs that look alike come from different tables or passages of the source.
Columns and labels:
[1] = target: T1, PI3Kα H1047R protein (p110-α H1047R complexed with truncated p85-α) (Homo sapiens, UniProt P42336, H1047R); test: Surface Plasmon Resonance (SPR) binding, wortmannin-blocked protein; details: Biacore 8K, ATP site blocked with 1 μM wortmannin, 25° C.
T1 construct: The protein contained a full-length p110-α subunit harboring the H1047R mutation
Description: Surface Plasmon Resonance (SPR)
SPR experiments were performed on a Biacore 8K instrument. A biotinylated recombinant PI3Kα H1047R protein was used in this study. The protein contained a full-length p110-α subunit harboring the H1047R mutation with an N-terminal AviTag, complexed with a truncated p85-α subunit (amino acid residues 322-694). The protein was first incubated with 1 μM wortmannin for 30 min at RT to covalently block the ATP binding site, then immobilized onto a streptavidin sensor chip by flowing the protein through the sensor chip at typically 20 μg/mL concentration and 2 μL/min flow rate for 1200 seconds. Compound binding affinities were measured in the multi-cycle kinetics mode, at 90 μL/min flow rate with 90 seconds association time and 240 seconds dissociation time. The running buffer contained 50 mM Tris, pH 7.5, 150 mM NaCl, 0.01% Brij35, 1 mM DTT, 1 mM MgCl2, 0.05% Tween-20 and 2% DMSO. Temperature was maintained at 25° C. during experiments.

[2] = test system: T47D pAKT (S473), PI3Kα H1047R mutation present; test: HTRF pAKT-T47D;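 also: assay medium was RPMI with 10% FBS and 0.2 units/ml bovine insulin, without phenol red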
[3] = Homo sapiens, T47D, 1 h, read-out: T47D pAKT IC50 (nM), T47D.1 cells, pAKT (S473) HTRF, 1 hour
[4] = read-out: T47D pAKT IC50, T47D.1 cells, pAKT (S473) HTRF, 1 hour

T1 sequence (P42336 whole entry H1047R, the tested form may be a part): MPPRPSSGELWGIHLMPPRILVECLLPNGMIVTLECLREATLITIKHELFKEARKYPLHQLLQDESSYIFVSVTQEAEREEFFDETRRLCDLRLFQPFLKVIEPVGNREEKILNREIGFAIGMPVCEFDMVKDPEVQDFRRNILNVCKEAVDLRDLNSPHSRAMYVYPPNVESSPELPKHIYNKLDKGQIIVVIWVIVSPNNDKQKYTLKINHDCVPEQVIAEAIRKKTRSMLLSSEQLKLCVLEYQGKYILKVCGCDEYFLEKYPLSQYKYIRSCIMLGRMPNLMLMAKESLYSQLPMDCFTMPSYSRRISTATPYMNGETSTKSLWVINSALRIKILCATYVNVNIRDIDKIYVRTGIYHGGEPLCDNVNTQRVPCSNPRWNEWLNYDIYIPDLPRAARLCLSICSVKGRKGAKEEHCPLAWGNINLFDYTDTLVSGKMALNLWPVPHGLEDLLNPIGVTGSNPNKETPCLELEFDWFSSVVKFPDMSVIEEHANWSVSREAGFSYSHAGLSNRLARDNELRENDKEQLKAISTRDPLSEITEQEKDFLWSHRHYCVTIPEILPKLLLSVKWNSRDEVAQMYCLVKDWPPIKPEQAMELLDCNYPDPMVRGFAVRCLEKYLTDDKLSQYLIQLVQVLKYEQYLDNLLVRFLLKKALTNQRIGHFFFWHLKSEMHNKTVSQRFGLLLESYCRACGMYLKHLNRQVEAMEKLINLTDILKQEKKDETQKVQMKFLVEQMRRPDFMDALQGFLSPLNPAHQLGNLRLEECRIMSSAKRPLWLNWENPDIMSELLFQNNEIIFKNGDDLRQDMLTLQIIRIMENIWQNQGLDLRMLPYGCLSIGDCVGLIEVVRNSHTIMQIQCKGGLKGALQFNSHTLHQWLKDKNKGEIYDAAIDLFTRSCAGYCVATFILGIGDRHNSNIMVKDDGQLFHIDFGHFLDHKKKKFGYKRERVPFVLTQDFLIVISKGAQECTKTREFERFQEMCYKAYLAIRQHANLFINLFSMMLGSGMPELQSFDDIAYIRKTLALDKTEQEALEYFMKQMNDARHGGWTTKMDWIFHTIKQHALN
T1 sequence (P27986 322-694 partner limits assumed): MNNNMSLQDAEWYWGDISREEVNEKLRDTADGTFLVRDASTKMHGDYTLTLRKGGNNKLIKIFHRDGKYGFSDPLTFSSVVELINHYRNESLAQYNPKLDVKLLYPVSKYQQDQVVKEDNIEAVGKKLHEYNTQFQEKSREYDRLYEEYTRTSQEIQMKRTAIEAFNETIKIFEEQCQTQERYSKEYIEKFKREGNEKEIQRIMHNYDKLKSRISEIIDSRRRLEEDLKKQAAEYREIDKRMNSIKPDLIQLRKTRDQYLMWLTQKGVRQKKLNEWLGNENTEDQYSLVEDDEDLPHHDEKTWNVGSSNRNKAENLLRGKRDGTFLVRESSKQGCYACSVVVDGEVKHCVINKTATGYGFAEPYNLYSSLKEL

Row | SMILES | Kd [1] [nM] | IC50 [2, 3] [nM] | IC50 [2, 4] [nM]
1 | Cc1c([C@@H](NC(=O)N[C@@H]2CCCS(=O)(=O)C2)C(C)C)oc2ccc(F)cc12 [Compound 43, 1-((R)-1,1-dioxidotetrahydro-2H-thiopyran-3-yl)-3-((S)-1-(5-fluoro-3-methylbenzofuran-2-yl)-2-methylpropyl)urea] | 100 to 250 | 1000 to 5000 | 
2 | Cc1c([C@@H](NC(=O)Nc2cncc(S(C)(=O)=O)c2)C(C)C)oc2ccc(F)cc12 [Compound 27, (S)-1-(1-(5-fluoro-3-methylbenzofuran-2-yl)-2-methylpropyl)-3-(5-(methylsulfonyl)pyridin-3-yl)urea] | < 100 | < 1000 | 
3 | Cc1c([C@@H](NC(=O)N[C@H]2CCC[C@H](C(N)=O)C2)C(C)C)oc2ccc(F)cc12 [Compound 31, (1S,3S)-3-(3-((S)-1-(5-fluoro-3-methylbenzofuran-2-yl)-2-methylpropyl)ureido) cyclohexane-1-carboxamide] | 250 to 500 | > 5000 | 
4 | CC(C)C(NC(=O)Nc1cccc(C(N)=O)c1)c1cc2cc(F)ccc2o1 (racemic) [Compound 50, 3-(3-(1-(5-fluorobenzofuran-2-yl)-2-methylpropyl)ureido)benzamide] | 100 to 250 | > 5000 | 
5 | CNC(=O)c1cncc(NC(=O)N[C@H](c2oc3ccc(F)cc3c2C)C(C)C)c1 [Compound 60, (S)-5-(3-(1-(5-fluoro-3-methylbenzofuran-2-yl)-2-methylpropyl)ureido)-N-methylnicotinamide] | 100 to 250 | 1000 to 5000 | 
6 | Cc1c([C@@H](NC(=O)Nc2ccnc(C(N)=O)c2)C(C)C)oc2ccc(F)cc12 [Compound 40, (S)-4-(3-(1-(5-fluoro-3-methylbenzofuran-2-yl)-2-methylpropyl)ureido)picolinamide] | 250 to 500 | 1000 to 5000 | 
7 | Cc1c([C@@H](NC(=O)Nc2ccc3c(c2)C(=O)NC3)C(C)C)oc2ccc(F)cc12 [Compound 34, (S)-1-(1-(5-fluoro-3-methylbenzofuran-2-yl)-2-methylpropyl)-3-(3-oxoisoindolin-5-yl)urea] | < 100 | 1000 to 5000 | 
8 | CNC(=O)c1cccc(NC(=O)N[C@H](c2oc3ccc(F)cc3c2C)C(C)C)c1 [Compound 23, (S)-3-(3-(1-(5-fluoro-3-methylbenzofuran-2-yl)-2-methylpropyl)ureido)-N-methylbenzamide] | 250 to 500 | 1000 to 5000 | 
9 | Cc1c([C@@H](C)NC(=O)Nc2ccc(S(N)(=O)=O)cc2)oc2ccc(F)cc12 [Compound 12, (R)-4-(3-(1-(5-fluoro-3-methylbenzofuran-2-yl)ethyl)ureido) benzenesulfonamide] | ≥ 500 |  | 1000 to 5000
10 | Cc1c([C@@H](NC(=O)Nc2ccc(C(=O)N(C)C)nc2)C(C)C)oc2ccc(F)cc12 [Compound 65, (S)-5-(3-(1-(5-fluoro-3-methylbenzofuran-2-yl)-2-methylpropyl)ureido)-N,N-dimethylpicolinamide] | 100 to 250 | 1000 to 5000 | 
11 | Cc1c([C@@H](NC(=O)Nc2ccc(S(N)(=O)=O)nc2)C2CC2)oc2ccc(F)cc12 [Compound 48, (S)-5-(3-(cyclopropyl(5-fluoro-3-methylbenzofuran-2-yl)methyl)ureido)pyridine-2-sulfonamide] | 100 to 250 | 1000 to 5000 | 
12 | Cc1c([C@@H](NC(=O)Nc2ccc(N3CCC3)nc2)C(C)C)oc2ccc(F)cc12 [Compound 71, (S)-1-(6-(azetidin-1-yl)pyridin-3-yl)-3-(1-(5-fluoro-3-methylbenzofuran-2-yl)-2-methylpropyl) urea] | < 100 | < 1000 | 
13 | Cc1c([C@@H](NC(=O)Nc2cncc(C(=O)O)c2)C(C)C)oc2ccc(F)cc12 [Compound 62, (S)-5-(3-(1-(5-fluoro-3-methylbenzofuran-2-yl)-2-methylpropyl)ureido)nicotinic acid] | < 100 | > 5000 | 
14 | Cc1c([C@@H](NC(=O)Nc2cncc(C(N)=O)c2)C2CC2)oc2ccc(F)cc12 [Compound 45, (S)-5-(3-(cyclopropyl(5-fluoro-3-methylbenzofuran-2-yl)methyl)ureido)nicotinamide] | 100 to 250 | 1000 to 5000 | 
15 | Cc1c([C@@H](NC(=O)Nc2ccc3c(c2)CNC3=O)C(C)C)oc2ccc(F)cc12 [Compound 33, (S)-1-(1-(5-fluoro-3-methylbenzofuran-2-yl)-2-methylpropyl)-3-(1-oxoisoindolin-5-yl)urea] | < 100 | < 1000 | 
16 | Cc1c([C@@H](NC(=O)N[C@H]2CCCS(=O)(=O)C2)C(C)C)oc2ccc(F)cc12 [Compound 44, 1-((S)-1,1-dioxidotetrahydro-2H-thiopyran-3-yl)-3-((S)-1-(5-fluoro-3-methylbenzofuran-2-yl)-2-methylpropyl)urea] | 250 to 500 | 1000 to 5000 | 
17 | Cc1c([C@@H](NC(=O)Nc2cccc(S(C)(=N)=O)c2)C(C)C)oc2ccc(F)cc12 (single isomer, unassigned) [Compound 30] | 100 to 250 |  | 1000 to 5000
18 | Cc1c([C@@H](NC(=O)Nc2cccnc2)C2CC2)oc2ccc(F)cc12 [Compound 37, (S)-1-(cyclopropyl(5-fluoro-3-methylbenzofuran-2-yl)methyl)-3-(pyridin-3-yl)urea] | ≥ 500 | > 5000 | 
19 | Cc1c([C@@H](NC(=O)N[C@H]2CC[C@H](O)CC2)C(C)C)oc2ccc(F)cc12 [Compound 6, 1-((S)-1-(5-fluoro-3-methylbenzofuran-2-yl)-2-methylpropyl)-3-((1r,4S)-4-hydroxycyclohexyl)urea] | 250 to 500 |  | 
20 | CNS(=O)(=O)c1ccc(NC(=O)NC(C)c2oc3ccc(F)cc3c2C)cc1 (single isomer, unassigned) [Compound 14] | ≥ 500 |  | 
21 | COC(=O)N1CCC[C@H](NC(=O)N[C@H](c2oc3ccc(F)cc3c2C)C(C)C)C1 [Compound 55, methyl (S)-3-(3-((S)-1-(5-fluoro-3-methylbenzofuran-2-yl)-2-methylpropyl)ureido)piperidine-1-carboxylate] | ≥ 500 |  | 
22 | Cc1c([C@@H](NC(=O)Nc2ccc(S(C)(=O)=O)cc2)C2CC2)oc2ccc(F)cc12 [Compound 16, (S)-1-(cyclopropyl(5-fluoro-3-methylbenzofuran-2-yl)methyl)-3-(4-(methylsulfonyl)phenyl)urea] | ≥ 500 |  | 

Next, values leading:

Row | Kd [1] [nM] | IC50 [2, 3] [nM] | IC50 [2, 4] [nM] | SMILES
23 | < 100 | < 1000 |  | Cc1c([C@@H](NC(=O)Nc2cnc(N3CCC3)nc2)C(C)C)oc2ccc(F)cc12 [Compound 74]
24 | < 100 | < 1000 |  | Cc1c([C@@H](NC(=O)Nc2cnc(N)nc2)C(C)C)oc2ccc(F)cc12 [Compound 39, (S)-1-(2-aminopyrimidin-5-yl)-3-(1-(5-fluoro-3-methylbenzofuran-2-yl)-2-methylpropyl)urea]
25 | < 100 |  | 1000 to 5000 | Cc1c([C@@H](NC(=O)Nc2cnc(N)nc2)C(C)C)oc2ccc(F)cc12 [Compound 66, (S)-1-(2-aminopyrimidin-5-yl)-3-(1-(5-fluoro-3-methylbenzofuran-2-yl)-2-methylpropyl)urea]
26 | < 100 | < 1000 |  | Cc1c([C@@H](NC(=O)Nc2cncc(C(N)=O)c2)C(C)C)oc2ccc(F)cc12 [Compound 24, (S)-5-(3-(1-(5-fluoro-3-methylbenzofuran-2-yl)-2-methylpropyl)ureido) nicotinamide]
27 | 100 to 250 | < 1000 |  | Cc1c([C@@H](NC(=O)Nc2cnc(C(=O)N(C)C)nc2)C(C)C)oc2ccc(F)cc12 [Compound 59, (S)-5-(3-(1-(5-fluoro-3-methylbenzofuran-2-yl)-2-methylpropyl)ureido)-N,N-dimethylpyrimidine-2-carboxamide]
28 | 100 to 250 | 1000 to 5000 |  | Cc1c([C@@H](NC(=O)Nc2cn[nH]c2)C(C)C)oc2ccc(F)cc12 [Compound 47, (S)-1-(1-(5-fluoro-3-methylbenzofuran-2-yl)-2-methylpropyl)-3-(1H-pyrazol-4-yl)urea]
29 | < 100 | < 1000 |  | Cc1c([C@@H](NC(=O)Nc2ccc(C(N)=O)nc2)C(C)C)oc2ccc(F)cc12 [Compound 41, (S)-5-(3-(1-(5-fluoro-3-methylbenzofuran-2-yl)-2-methylpropyl)ureido)picolinamide]
30 | < 100 | < 1000 |  | Cc1c([C@@H](NC(=O)Nc2cnc(N3CC(F)(F)C3)nc2)C(C)C)oc2ccc(F)cc12 [Compound 72, (S)-1-(2-(3,3-difluoroazetidin-1-yl)pyrimidin-5-yl)-3-(1-(5-fluoro-3-methylbenzofuran-2-yl)-2-methylpropyl)urea]
31 | 100 to 250 | < 1000 |  | Cc1c([C@@H](NC(=O)Nc2ccc(N)nc2)C(C)C)oc2ccc(F)cc12 [Compound 38, (S)-1-(6-aminopyridin-3-yl)-3-(1-(5-fluoro-3-methylbenzofuran-2-yl)-2-methylpropyl)urea]
32 | < 100 | < 1000 |  | Cc1c([C@@H](NC(=O)Nc2cnc(N)nc2)C(C)C)oc2c(F)cc(F)cc12 [Compound 75, (S)-1-(2-aminopyrimidin-5-yl)-3-(1-(5,7-difluoro-3-methylbenzofuran-2-yl)-2-methylpropyl)urea]

— patent publication US12084434B2 (Scorpion Therapeutics, Inc., priority 2021, dated 2024)
